Laboratory results from patent US7022720B2, “Synthetic diazonamides as novel anti-mitotic agents” (Board of Regents, The University of Texas System, priority 2001, dated 2006).
Where two headings read alike, the source gives them in different places.

Assays:
[1] = system: BSC-1 cells; assay: Immunofluorescence of alpha tubulin in BSC-1 cells after thymidine block; assay type: cell-based, African Green Monkey; details: BSC-1, 100 nM, 12 hours after thymidine block, FIG. 16
Experimental: Immunofluorescence was also performed on JL-9, JL-10, taxol and vinblastine-treated BSC-1 cells subjected to thymidine block. BCS-1 African Green Monkey kidney cells were treated for 18 hours in culture medium containing 2 mM thymidine and then returned to normal medium containing 100 nM of taxol, vinblastine, JL-10 (control) or JL-9 for 12 hours. During the last 30 minutes, Hoecht's dye was added to 100 nM to stain chromosomes. Cells were fixed in cold methanol and stained with antibody specific for alpha tubulin. Images of the organization of microtubules in spindles were collected with a laser scanning confocal microscope using a single 488 nm excitation wavelength.

[2] = Comparison of synthesized compound with natural diazonamide (handling stability); assay type: physicochemical
Text: Characteristics of synthesized diazonamide compound, JL-9, were compared to naturally occurring diazonamide. […] The process completes upon attempted preparative HPLC purification of 1b (FIG. 1) under conditions identical to those used to isolate natural (−)-diazonamide A. In addition, a second degradation pathway available in this series appears as a result of the cleavage of the strained macrolactam ring through diketopiperazine formation that involves the C37 amine and the C12 amide carbonyl.

[3] = system: OVCAR-3 cells; assay: Indirect immunofluorescence of tubulin cytoskeleton in OVCAR-3; assay type: cell-based, human; details: OVCAR-3, 12 or 23 hours, FIGS. 15D and 15E
Experimental: Immunofluorescence was performed on JL-9, taxol, vinblastine, control-treated OVCAR-3 cells to examine their effects on tubulin cytoskeleton. Cells were grown on 2 cm glass cover slips in tissue culture wells. Media containing JL-9, vinblastine, or taxol was added at various concentrations and incubated for 12 or 23 hours. Hoescht […] nuclear dye was added directly to the media (1.5 ug/ml) and incubated at 37° C. for 30 minutes. Coverslips were washed 3× with 1×PBS and fixed for 10 minutes with −20C 100% methanol. Coverslips were washed 3× with 1×PBS/1% BSA and treated directly with a 1/2000 dilution of anti-α-tubulin antibody (mouse anti-human). Coverslips were washed 3× with 1×PBS/1% BSA and treated with 1/500 dilution of fluorescently conjugated goat anti-mouse secondary antibody (Alexa Fluor 488). Coverslips were washed 3× with 1×PBS/1% BSA and mounted on microscope slides using mounting media (Aqua Poly Mount). Images were obtained using Zeiss Axiovert 100M digital light and confocal microscopy.

[4] = system: HCT-116 cells; assay type: cell-based, human; details: 30 nM, 12-48 hours, FIG. 14
Experimental: FACS Analysis was performed on HCT-116 cells to examine the effect of JL-9 on mitosis. 150,000 HCT-116 cells were incubated per well with media into six well tissue culture plates. Cells were allowed to adhere for 16–18 hours. Media containing 0.01% ethanol (vehicle control), 30 nanomolar (nM) taxol, 30 nM vinblastine and 30 nM JL-9 was added to cells and incubated for 12, 24, 36, or 48 hours. At these time points, cells were harvested with 0.25% trypsin 1 mM EDTA, and transferred to 1.5 ml Eppendorf tubes. Cells were pelleted and washed twice with 1×PBS. Cells were then fixed in −20° C. 100% ethanol and stored at 4° C. Cells were pelleted from 100% ethanol, washed once with 1×PBS, and treated with Vindelov's propidium iodide solution (50 ug/ml propidium iodide, 0.01 mM NaCl, 0.1% IPEGAL, 0.01 mg RNase) and 1 mg/ml RNAse for 30 minutes at 37° C. Propidium iodide is a fluorescent marker that binds to nucleotides. It can be used with FACS scan analysis to determine the ploidy of a population of cells. FACS scan analysis was performed using […] FACScan instrument. Data was analyzed using Cell Quest software.

[5] = system: OVCAR-3 cells; assay: In vitro cytotoxicity assay (Promega CellTiter-Glo) in OVCAR-3; assay type: cell-based, human
Experimental: A growth inhibition study was also conducted using OVCAR-3 (a human ovarian adenocarcinoma) cells. Human ovarian adenocarcinoma OVCAR-3 cells are treated with diazonamide and control compounds for 48 hours and evaluated for cell viability using the Promega CellTiter-Glo™ Assay (Promega, Madison, Wis.). This assay uses luciferase to measure ATP as indicator of metabolically active cells.

[6] = system: SK-MEL-5 cells; assay: MTT assay in SK-MEL-5; assay type: cell-based, human; details: SK-MEL-5, MTT, FIG. 13
Text: This assay measures cellular viability and proliferation based on the ability of live cells to take up and cleave a tetrazolium salt to generate a colored product.

[7] = system: HCT-116 cells; details: HCT-116 human colorectal carcinoma line; cited from earlier work

Row | SMILES | mitotic figures / spindle organization [1] | cell cycle arrest (ploidy) [4] | GI50 ([5]; Homo sapiens, OVCAR-3, 48 h) [nM] | cytotoxic and growth inhibitory effect [6] | other results
1 | CC(C)[C@H](O)C(=O)N[C@H]1Cc2ccc3c(c2)C24C5=C(N=C(O5)[C@H](C(C)C)NC1=O)c1nc(Cl)c(o1)-c1c(Cl)[nH]c5cccc(c15)-c1cccc2c1OC4O3 (stereo partly drawn) [JL-9] | Mitotic figures were frequently found | arrests HCT-116 cells in the tetraploid (4n) state | 16 | potent cytotoxic and growth inhibitory effect | stability on handling [2]: susceptible to handling; effect on tubulin cytoskeleton [3]: aberrant effects on the cytoskeleton and formation of abnormal mitotic spindles; fold more potent than JL-10 at inhibiting growth ([5]; OVCAR-3 in vitro): > 50 fold; potency relative to natural diazonamide A and paclitaxel ([5]; OVCAR-3 in vitro): equipotent to natural diazonamide A and paclitaxel
2 | CC(C)[C@H](N)C(=O)N[C@H]1Cc2ccc3c(c2)C24C5=C(N=C(O5)[C@H](C(C)C)NC1=O)c1nc(Cl)c(o1)-c1c(Cl)[nH]c5cccc(c15)-c1cccc2c1OC4O3 (stereo partly drawn) [JL-10] | resembled the vehicle controls |  | 845 | inactive analogue | 
3 | CC(C)[C@H](O)C(=O)N[C@H]1Cc2ccc3c(c2)[C@]24C5=C(N=C(O5)[C@H](C(C)C)NC1=O)c1nc(Cl)c(o1)-c1c(Cl)[nH]c5cccc(c15)-c1cccc2c1N[C@@H]4O3 [natural diazonamide, diazonamide A, reference compound] |  |  |  |  | GI50 (50% growth inhibitory concentration) [7]: less than 15 ng/ml; GI50 ([5]; OVCAR-3, 48 hours, CellTiter-Glo, read-out: GI50): 8 nM
4 | CC(=O)O[C@H]1C(=O)[C@@]2(C)[C@H]([C@H](OC(=O)c3ccccc3)[C@]3(O)C[C@H](OC(=O)[C@H](O)[C@@H](NC(=O)c4ccccc4)c4ccccc4)C(C)=C1C3(C)C)[C@]1(OC(C)=O)CO[C@@H]1C[C@@H]2O [paclitaxel, reference compound] | Mitotic figures were frequently found | arrests HCT-116 cells in the tetraploid (4n) state |  |  | GI50 ([5]; Homo sapiens, OVCAR-3, 48 hours, CellTiter-Glo, read-out: GI50): 8 nM
5 | CC[C@]1(O)C[C@@H]2CN(CCc3c([nH]c4ccccc34)[C@@](C(=O)OC)(c3cc4c(cc3OC)N(C)[C@H]3[C@@](O)(C(=O)OC)[C@H](OC(C)=O)[C@]5(CC)C=CCN6CC[C@]43[C@@H]65)C2)C1 [vinblastine, reference compound] | Mitotic figures were frequently found | arrests HCT-116 cells in the tetraploid (4n) state |  |  | 
